{"source": "patent US20180325947A1", "about": "“USE OF MAPK INHIBITORS TO REDUCE LOSS OF HEMATOPOIETIC STEM CELLS DURING EX VIVO CULTURE AND/OR GENETIC MANIPULATION” (Children's Hospital Medical Center, priority 2015, published 2018)", "format_in_all_cases": "cell-based", "key": {"[1]": {"system": "human CD34+ 38- 90+ HSC enriched population", "test": "cell cycle status of HSCs (Ki67 / Hoechst), flow cytometry", "settings": "for G0 quiescent phase of untransduced and transduced HSCs: early time period of ex vivo culture", "method": "Human MPB derived CD34^+ cells were cultured and transduced with lentivirus (LV) or retrovirus (RV) for the indicated time points. Representative Immunofluorescence images of sorted human CD34^+ 38^− 90^+ population treated with or without p38i for 72 hours stained with anti-γH2AX and 53BP1 (Panel A) and quantification of γ-H2AX (Panel B) and 53BP1 (Panel C) MFI/cell. Panel D: Representative histogram plot from flow cytometric analysis of CD34^+ 38^− 90^+ HSC enriched cells stained for γ-H2AX with or without p38 inhibitor (p38i) and quantification of fold change in mean fluorescence intensity (MFI) of γ-H2AX in HSCs (Panel E) and percent GH2AX^+ cells (Panel F) at indicated time period. Percentage shown in histograms are cells positive for γH2AX and the numbers below is mean fluorescent intensity (MFI) (n=5 independent experiments). FACS plot representing HSCs in G0 (Quiescent), G1, and S-G2-M phase of cell cycle with or without p38i (Panel G) and quantification (Panel H) of HSC enriched population at different cell cycle phase at indicated time of ex vivo culture. Percentage of (±SEM) Ki67^− (G0) and Ki67^+ (G1-S-G2-M) HSCs is depicted on the y-axis. (n=4 independent experiments for 24 h LV and n=5 independent experiments for 42 h LV and 72 h RV)). Statistics: paired Student's t test, *p<0.05, **p<0.01, ***p<0.001.\nHuman MPB derived CD34^+ cells were cultured and transduced as described in FIG. 17. Panel A: Quantification of γ-H2AX^+ CD34^+ 38^− 90^+ cells at 24, 42, & 72 hours. n=5-8 independent experiments/condition). Panel B: Quantification of immunofluorescence analysis for γ-H2AX (left) and 53BP1 (right) MFI per sorted human CD34^+ 38^− 90^+ cell with or without p38i for 42 hours. Panel C: Quantitative plot representing CD34^+ 38^− 90^+ cells in G0-G1, and S-G2-M phase of cell cycle with or without p38i at 42 hours of ex vivo culture and lentivirus (LV) transduction. (n=6 independent experiments/condition). Statistics: paired Student's t test, *p<0.05, **p<0.01, ***p<0.001. Statistics: Student's t test, *p<0.05, **p<0.01, ***p<[…].\nKi67, a nuclear antigen associated with cell proliferation, was used to determine cell cycle status via flow cytometry; negative stains were considered to represent quiescent HSCs."}, "human CD34+ cells": {"system": "human CD34+ cells", "test": "total CD34+ cell number / viability, trypan blue", "settings": "with or without p38i", "method": "(§1) Human CD34^+ cells were cultured and transduced as described in FIG. 13, panel A. Harvested cells were stained with trypan blue for viability, total CD34+ cell number (Panel A), fold change in percent human CD34^+ 38^− 90^+ 45RA^− 49f^+ (HSCs) (Panel B), percent annexin V^+ (apoptotic) CD34^+38^− 90^+ cells (Panel C), fold change in transduction efficiency (based on GFP marker percentage) over non-treated CD34^+38^− 90^+ cells (Panel D), fold change in MitoSOX MFI in CD34^+38^− 90^+ cells are shown (Panel E). Data represents mean±SEM. Statistics: Student's t test, […], *p<0.05, **p<0.01, ***p<0.001."}, "human CD34+38-90+ cells": {"system": "human CD34+38-90+ cells", "test": "apoptosis, annexin V+ CD34+38-90+ cells", "settings": "with or without p38i", "method": "as §1"}, "[2]": {"settings": "before the first HSC division (24 h)"}}}
{"smiles": "Cc1ccc(-n2nc(C(C)(C)C)cc2NC(=O)Nc2ccc(OCCN3CCOCC3)c3ccccc23)cc1", "note": "[BIRB-796, 1-[5-tert-butyl-2-(4-methylphenyl)pyrazol-3-yl]-3-[4-(2-morpholin-4-ylethoxy)naphthalen-1-yl]urea]", "values": [{"measurement": "effect on HSC cell cycle", "setting": "[1]; after 24 h, as HSC progressed through cell cycle", "value": "lost"}, {"measurement": "proportion of HSC in the G0 quiescent phase", "setting": "[1]; [2]", "value": "significantly increased"}, {"measurement": "proportion of HSC in the S-G2-M phase", "setting": "[1]; [2]", "value": "decreased"}, {"measurement": "G0 quiescent phase of untransduced and transduced HSCs", "setting": "[1]", "value": "maintain"}, {"measurement": "G0 quiescent phase of untransduced and transduced HSCs", "setting": "[1]; listed as p38i", "value": "retains"}, {"measurement": "total number of CD34+ cells or their viability", "setting": "human CD34+ cells", "value": "no significant change"}, {"measurement": "apoptosis in CD34+38-90+ population", "setting": "human CD34+38-90+ cells", "value": "no difference"}]}
